Laboratory results taken from US7713969B2, “Compositions and methods for treatment of cancer” (ArQule, Inc., priority 2005, dated 2010).
Read-outs that look alike come from different tables or passages of the source.

Columns and labels:
Format in all cases: cell-based
[1] = target: T1, c-Met (Homo sapiens, UniProt P08581); experiment: c-Met inhibition, phospho-c-Met blot with densitometry (Example 83); parameters: whole cell extracts were prepared; endogenous in cells; host or cells: MCF-7, MDA-MB-231, DLD1, HT29, PACA2, PANC-1, NCI-H441; conditions: 24 hours treatment, read-out: (−)-trans IC50 c-Met Inhibition
Procedure: To determine c-met inhibition, exponentially growing MCF-7 and MDA-MB-231 human breast cancer cells, DLD1 and HT29 human colon cancer cells, PACA2 and PANC-1 human pancreatic cancer cells and NCI-H441 human non-small cell lung cancer cells (H441) were serum starved in 0.5% FBS and treated with increasing amounts of (−)-trans-3-(5,6-dihydro-4H-pyrrolo [3,2,1-ij]quinolin-1-yl)-4(1H-indol-3-yl)pyrrolidine-2,5-dione for 24 hours as indicated. Cells were then left unstimulated or stimulated with 100 ng/mL HGF for 10 minutes and whole cell extracts were prepared. Whole cell lysates (50 μg) were resolved by SDS-PAGE, transferred onto a PVDF membrane, and an enhanced chemiluminescence assay system (ECL) was used to determine the phosphorylation status of c-Met. A polyclonal antibody against phospho (Y1349) c-Met (phospho-c-Met) was obtained from Biosource International and a monoclonal antibody against β-actin was purchased from Invitrogen. Percent inhibition was determined by densitometry using the Scion Image For colony formation assays (CFA), exponentially growing cells were seeded at 2,000 cells per well in 6-well plates and allowed to attach for 24 hours. Increasing concentrations of (−)-trans-3-(5,6-dihydro-4H-pyrrolo[3,2,1-ij]quinolin-1-yl)-4(1H-indol-3-yl)pyrrolidine-2,5-dione (from 0.01 to 30 μM) were then added to the media for another 24 hours. After 24 hours exposure, the drug was removed and fresh media was added for the next 14-21 days, allowing for colony formation. Cells were fixed and stained with GEMSA (Gibco BRL). Colonies of greater than 50 cells were scored as survivors and percentage of cell survival was plotted to determine the IC50. […] The IC50 of (−)-trans-3-(5,6-dihydro-4H-pyrrolo[3,2,1-ij]quinolin-1-yl)-4(1H-indol-3-yl) pyrrolidine-2,5-dione for c-Met expressing solid tumor types is in the 0.1-0.7 μM range following exposure to (−)-trans-3-(5,6-dihydro-4H-pyrrolo[3,2,1-ij]quinolin-1-yl)-4(1H-indol-3-yl)pyrrolidine-2,5-dione for 24 hours, as determined by colony formation assay (CFA).

[2] = target: T1, c-Met; experiment: c-Met phosphorylation, Western blot (Example 80); parameters: whole cell extracts were prepared; endogenous in cells; host or cells: MDA-MB-231; conditions: MDA-MB-231 cells, serum-deprived 16 hours, 100 ng/ml HGF/SF 10 minutes
Procedure: MDA-MB-231 cells were serum-deprived overnight (16 hours) in the absence or in the presence of the indicated concentrations of the separate enantiomers (+)-trans-3-(5,6-dihydro-4H-pyrrolo[3,2,1-ij]quinolin-1-yl)-4(1H-indol-3-yl)pyrrolidine-2,5-dione and (−)-trans-3-(5,6-dihydro-4H-pyrrolo[3,2,1-ij]quinolin-1-yl)-4(1H-indol-3-yl)pyrrolidine-2,5-dione. Cells were treated with 100 ng/ml recombinant human Hepatocyte Growth Factor/Scatter Factor (HGF/SF) (R&D Systems #294-HG) for 10 minutes. Whole cell extracts were prepared in lysis buffer (20 mM Trwas-HC1 pH 7.5, 150 mM NaCl, 1 mM Na2EDTA, 1 mM EGTA, 1% Triton X-100, 2.5 mM sodium pyrophosphate, 1 mM beta-glycerophosphate, 1 mM Na3VO4, 1 μg/ml leupeptin, 1 mM phenylmethylsulfonyl fluoride) and sonicated. Protein concentration was measured by Bradford assay using the BioRad reagent (BioRad, Hercules, Calif.), according to the manufacturer's directions. Samples (50 μg of protein) were resolved by 8% SDS-PAGE under reducing conditions, and transferred onto a PVDF membrane (BioRad). […] Proteins were detected by incubation overnight at 4° C. in TBS-T with 5% milk and either a polyclonal antibody against phosphorylated c-Met (#3121), phosphorylated Erk1/2 (#9101), total Erk1/2 protein (#9102) (Cell Signaling Technology); or a monoclonal antibody against […] (A-5441) (Sigma), which was used as a control for total protein loading. […]

[3] = system: A549 human lung cancer cells; experiment: Annexin V / propidium iodide staining (Example 84); conditions: 1.2 μM, 38 hours
Procedure: A549 human lung cancer cells in a 96-well plate (Costar 3603, 5,000/well) were treated with either A) DMSO as a control; B) 1.2 μM (−)-trans-3-(5,6-dihydro-4H-pyrrolo[3,2,1-ij]quinolin-1-yl)-4(1H-indol-3-yl)pyrrolidine-2,5-dione for 38 hours before addition of 1:200 fluorescent Annexin V (green) and 1:500 Propidium iodide (magenta, final concentration of 1 μg/mL). The labeling procedure was allowed to process at 37° C. for 20 minutes followed by image acquisition and analysis using an IC100 Image Cytometer (Beckman Coulter, Inc) with 10× amplification.
To determine whether (−)-trans-3-(5,6-dihydro-4H-pyrrolo[3,2,1-ij]quinolin-1-yl)-4(1H-indol-3-yl)pyrrolidine-2,5-dione works primarily through a cytostatic or apoptotic mechanism, cancer cells exposed to (−)-trans-3-(5,6-dihydro-4H-pyrrolo[3,2,1-ij]quinolin-1-yl)-4(1H-indol-3-yl) pyrrolidine-2,5-dione were stained with fluorescently labeled Annexin V (green fluorescence) and propidium iodide (bright magenta fluorescence). Annexin V is a well-validated reagent that specifically binds with high affinity to externalized membrane phosphatidylserine, an early marker of the onset of apoptosis, while propidium iodide is a marker for dead cells. […] (See FIG. 8)

T1 sequence (P08581 25-1390): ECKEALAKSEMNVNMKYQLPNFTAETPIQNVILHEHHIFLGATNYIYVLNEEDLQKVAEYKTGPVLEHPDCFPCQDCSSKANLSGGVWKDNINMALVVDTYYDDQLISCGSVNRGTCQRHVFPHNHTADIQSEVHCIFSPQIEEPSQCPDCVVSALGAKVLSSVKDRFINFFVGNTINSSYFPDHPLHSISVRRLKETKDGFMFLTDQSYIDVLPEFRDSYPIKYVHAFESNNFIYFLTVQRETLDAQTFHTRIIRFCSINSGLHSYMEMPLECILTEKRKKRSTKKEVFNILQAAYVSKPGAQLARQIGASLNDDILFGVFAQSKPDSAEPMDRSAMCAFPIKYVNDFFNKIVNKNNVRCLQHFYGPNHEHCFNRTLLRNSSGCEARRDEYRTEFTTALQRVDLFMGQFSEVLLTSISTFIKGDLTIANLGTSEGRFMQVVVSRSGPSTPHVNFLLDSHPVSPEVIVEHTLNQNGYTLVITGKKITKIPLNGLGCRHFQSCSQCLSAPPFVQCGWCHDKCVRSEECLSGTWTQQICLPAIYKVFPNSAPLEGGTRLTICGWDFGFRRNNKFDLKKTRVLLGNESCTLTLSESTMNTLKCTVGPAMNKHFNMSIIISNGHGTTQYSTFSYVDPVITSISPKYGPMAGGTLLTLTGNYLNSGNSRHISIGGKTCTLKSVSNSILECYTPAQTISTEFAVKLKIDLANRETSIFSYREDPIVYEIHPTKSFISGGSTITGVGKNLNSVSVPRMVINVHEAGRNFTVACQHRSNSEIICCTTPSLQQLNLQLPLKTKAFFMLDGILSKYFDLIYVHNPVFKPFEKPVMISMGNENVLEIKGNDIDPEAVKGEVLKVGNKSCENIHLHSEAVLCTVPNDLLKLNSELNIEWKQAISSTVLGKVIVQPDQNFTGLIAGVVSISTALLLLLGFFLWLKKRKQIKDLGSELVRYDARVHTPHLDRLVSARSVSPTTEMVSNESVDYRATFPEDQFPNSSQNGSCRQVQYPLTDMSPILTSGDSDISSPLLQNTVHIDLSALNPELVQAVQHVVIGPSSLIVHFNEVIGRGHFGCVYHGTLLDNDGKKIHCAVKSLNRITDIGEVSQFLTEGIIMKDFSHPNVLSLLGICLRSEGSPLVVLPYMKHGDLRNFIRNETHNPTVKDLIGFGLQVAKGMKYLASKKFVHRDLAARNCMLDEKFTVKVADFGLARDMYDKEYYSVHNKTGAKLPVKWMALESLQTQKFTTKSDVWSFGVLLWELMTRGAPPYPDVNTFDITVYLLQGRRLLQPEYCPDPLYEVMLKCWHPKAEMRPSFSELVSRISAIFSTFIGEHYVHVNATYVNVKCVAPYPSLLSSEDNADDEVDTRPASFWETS

- IC50 ([1]; DLD-1 cells): 3000 nM
- IC50 ([1]; H441 cells): 100 nM
- IC50 ([1]; HT-29 cells): 300 nM
- IC50 ([1]; MCF-7 cells): 100 nM
- IC50 ([1]; MDA-MB-231 cells): 100 nM
- IC50 ([1]; PACA2 cells): 100 nM
- IC50 ([1]; PANC-1 cells): 500 nM
- concentration that inhibits basal and HGF-induced autophosphorylation of c-Met [2]: at least 500 nM
Compound: O=C1NC(=O)C(c2cn3c4c(cccc24)CCC3)C1c1c[nH]c2ccccc12 (single isomer, unassigned; (-))
- apoptosis evidenced by Annexin V staining [3]: induced cells to undergo apoptosis
- cells that co-stain with both Annexin V and propidium iodide [3]: 10-20%
